Laboratory results taken from patent US11691984B2, “Compounds and methods for DCAF-mediated protein degradation” (The Scripps Research Institute, priority 2018, dated 2023).

How the values were obtained:
[1] = Cell viability assay (Cell Titer Glo); type: cell-based, human; conditions: human, HEK293T cells, 24 hours, read-out: cytotoxicity IC50
Experimental: HEK293T cells were seeded in 96-well clear bottom white plate (Corning) at 3×10^4 cells per well in 100 μL of DMEM medium and grown for 24 h. The cells were treated with 0.625, 1.25, 2.5, 5, 10, 20 and 40 μM of KB02-SLF or KB02-JQ1 (DMSO stock, final DMEM concentration is 0.1% (v/v)) in 100 μL of DMEM medium for 24 h. 50 μL of Cell Titer Glo reagent (Promega) was added to each well and incubate for 10 min at room temperature. The luminescence was read on CLARIOstar (BMG LAB TECH).

BRD4 = target: T1, BRD4 (Homo sapiens, UniProt O60885); assay: Proteome-wide SILAC MS protein abundance in HEK293T cells: BRD4; type: cell-based; conditions: 24 hours
T1 construct: degradation of endogenous BRD4 in HEK293T cells; endogenous in cells; host or cells: HEK293T (A10, A16); HEK293 DCAF16+/+ and DCAF16-/- clones (A11)
Experimental: (§1) HEK293T light and heavy SILAC cells were treated with DMSO and KB02-JQ1 (20 μM) or KB02-SLF (2 μM) for 24 hours, respectively. Light and heavy cells were collected and lysed in 1% NP-40 lysis buffer with complete protease inhibitor cocktail. Cells were vortexed and sonicated for 5 pulses (40%, 4). The supernatant was collected after centrifugation at 16,000 g for 10 min at 4° C. Protein concentration was determined by DC assay. 50 μg proteome from light and heavy samples were mixed, followed by methanol/chloroform precipitation. […] Next, the ratio of the peak areas under the light and heavy signals (signal-to-noise ratio>2.5) was calculated. […] In addition, peptides detected as ‘singletons,’ where only the heavy ion of a peptide pair was identified, but that cleared all other filtering parameters, were given a default assigned ratio of ‘20,’ which is defined as any measured ratio that is ≥20 and is the maximum ratio reported here.” The median SILAC ratios from quantified peptides were used as measures of protein abundance. The following quality filters were further applied to generate the plot: (1) proteins must have at least two quantified peptides; (2) proteins must be present in both replicates; (3) for each protein, the standard deviation of measured ratios of peptides must be <1.0.

BRD3 = target: T2, BRD3 (Homo sapiens, UniProt Q15059); assay: Proteome-wide SILAC MS protein abundance in HEK293T cells: BRD3; type: cell-based; conditions: KB02-JQ1 20 μM, 24 hours
T2 construct: endogenous in cells; host or cells: HEK293T
T2 sequence (Q15059 whole entry): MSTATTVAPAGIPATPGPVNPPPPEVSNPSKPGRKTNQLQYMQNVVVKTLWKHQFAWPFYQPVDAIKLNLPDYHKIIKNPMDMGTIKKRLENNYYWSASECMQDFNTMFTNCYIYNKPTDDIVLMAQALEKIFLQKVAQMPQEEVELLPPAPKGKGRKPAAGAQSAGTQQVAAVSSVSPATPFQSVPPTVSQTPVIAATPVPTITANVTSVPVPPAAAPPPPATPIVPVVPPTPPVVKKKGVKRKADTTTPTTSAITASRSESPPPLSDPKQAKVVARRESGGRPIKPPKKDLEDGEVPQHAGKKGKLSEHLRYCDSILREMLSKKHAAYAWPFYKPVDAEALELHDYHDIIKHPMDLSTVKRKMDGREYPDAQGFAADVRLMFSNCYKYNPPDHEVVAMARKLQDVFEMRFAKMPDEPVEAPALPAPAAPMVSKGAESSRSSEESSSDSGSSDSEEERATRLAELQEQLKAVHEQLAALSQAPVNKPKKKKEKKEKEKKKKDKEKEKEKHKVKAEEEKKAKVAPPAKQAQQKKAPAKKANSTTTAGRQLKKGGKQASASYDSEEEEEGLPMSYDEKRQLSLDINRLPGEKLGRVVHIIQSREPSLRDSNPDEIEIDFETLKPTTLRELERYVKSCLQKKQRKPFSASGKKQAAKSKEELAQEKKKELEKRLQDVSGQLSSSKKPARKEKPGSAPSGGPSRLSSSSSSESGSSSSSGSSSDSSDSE
Experimental: as §1

BRD4 and DCAF16 = target: T3, BRD4 and DCAF16 (Homo sapiens, UniProt O60885+Q9NXF7); assay: Co-immunoprecipitation of BRD4-FLAG with HA-DCAF16 in HEK293T cells; type: cell-based; conditions: 10 μM KB02-JQ1, 10 μM MG132, 2 hours
T3 construct: expressed in transfected cells; host or cells: HEK293T (pRK5 vectors)
Experimental: Cells were collected and lysed in 1% NP-40 lysis buffer (25 mM Tris-HCl pH 7.4, 150 mM NaCl, 10% glycerol, 1% Nonidet P-40) with complete protease inhibitor cocktail (Roche). Cells were vortexed and sonicated for 5 pulses (40%, 4). The supernatant was collected after centrifugation at 16,000 g for 10 min at 4° C. Protein concentration was determined by DC assay (Bio-Rad). Protein lysate was heated at 95° C. for 5 min in 1× Laemmli sample buffer. Proteins were resolved by 12% or 14% Novex Tris-Glycine Mini Gels (Invitrogen) and transferred to polyvinylidene fluoride (PVDF) membrane (0.2 Bio-Rad). The membrane was blocked with 5% BSA in TBST buffer (0.1% Tween 20, 20 mM Tris-HCl 7.6, 150 mM NaCl) at room temperature for 1 h. The antibody was diluted with fresh 5% BSA in TBST buffer (1:10000 dilution for FLAG, HA and β-Actin, 1:1000 dilution for others) and incubated with membrane (1 h room temperature for FLAG, HA and β-Actin, overnight 4° C. for others). Membrane was washed three times with TBST buffer and incubated with secondary antibody (1:5000 dilution in 5% BSA in TBST) at room temperature for 1 h. Membrane was washed three times with TBST buffer. The chemiluminescence signal in membrane was recorded after developing in ECL or ECL plus western blotting detection reagent using CL-XPosure film (Thermo Scientific). Relative band intensities were quantified using ImageJ. […]

Compound: Cc1sc2c(c1C)C(c1ccc(Cl)cc1)=N[C@@H](CC(=O)NCCOCCOCCNC(=O)COc1ccc3c(c1)CCCN3C(=O)CCl)c1nnc(C)n1-2 [KB02-JQ1, (S)-2-((1-(2-chloroacetyl)-1,2,3,4-tetrahydroquinolin-6-yl)oxy)-N-(2-(2-(2-(2-(4-(4-chlorophenyl)-2,3,9-trimethyl-6H-thieno[3,2-f][1,2,4]triazolo[4,3-a][1,4]diazepin-6-yl)acetamido)ethoxy)ethoxy)ethyl)acetamide]
- IC50 at 24 h [1]: > 50 µM
- BRD4 abundance (MS-based proteomics) (BRD4; KB02-JQ1 20 μM): selective degradation of BRD4
- BRD3 abundance (MS-based proteomics) (BRD3): not BRD2 or BRD3
- co-immunoprecipitation of DCAF16 with BRD4 (BRD4 and DCAF16): co-immunoprecipitated with BRD4 in a KB02-JQ1-dependent manner

Compound: CCC(C)(C)C(=O)C(=O)N1CCCC[C@H]1C(=O)O[C@H](CCc1ccc(OC)c(OC)c1)c1cccc(NC(=O)CCOCCOCCNC(=O)COc2ccc3c(c2)CCCN3C(=O)CCl)c1 [KB02-SLF, (R)-1-(3-(3-(2-(2-(2-((1-(2-chloroacetyl)-1,2,3,4-tetrahydroquinolin-6-yl)oxy)acetamido)ethoxy)ethoxy)propanamido)phenyl)-3-(3,4-dimethoxyphenyl)propyl (S)-1-(3,3-dimethyl-2-oxopentanoyl)piperidine-2-carboxylate]
- IC50 at 24 h [1]: 14 ± 1.1 µM
- BRD4 abundance (MS-based proteomics) (BRD4; KB02-SLF 2 μM): not BRD4
